# Test results published in patent publication US20240000806A1, “METHODS AND MATERIALS FOR INHIBITING CB1 ACTIVITY” (University of Pittsburgh - Of the Commonwealth System of …, priority 2020, published 2024).
# Target: CB1 (CNR1) (Homo sapiens, UniProt P21554)
# Assay: cAMP CNR1 Hunter cell line antagonist assay (CB1 assay)
# Format: cell-based
# Settings: antagonist mode, cAMP CNR1 Hunter cells, EC80 agonist; read-out: CB1 assay, Efficacy (IC50)
# Method: cAMP CNR1 Hunter cell line (Eurofins DiscoveryX) were expanded from freezer stocks and seeded in a total volume of 20 μL into white walled, 384-well microplates and incubated at 37° C. for the appropriate time prior to testing. For antagonist determination, cell media was aspirated from cells and replaced with 10 μL 1:1 HBSS/Hepes:cAMP XS+Ab reagent. 5 μL of 4× compound was added to the cells and incubated at 37° C. for 30 minutes. 5 μL of 4× EC80 agonist was added to cells and incubated at 37° C. for 30 minutes. After appropriate compound incubation, assay signal was generated through incubation with 20 μL cAMP XS+ED/CL lysis cocktail for one hour followed by incubation with 20 μL cAMP XS+EA reagent for three hours at room temperature. Microplates were read following signal generation with a PerkinElmer Envision™ instrument for chemiluminescent signal detection. Compound activity (IC50) was analyzed using CBIS data analysis suite (ChemInnovation, CA).
# CB1 (CNR1), sequence (P21554 whole entry): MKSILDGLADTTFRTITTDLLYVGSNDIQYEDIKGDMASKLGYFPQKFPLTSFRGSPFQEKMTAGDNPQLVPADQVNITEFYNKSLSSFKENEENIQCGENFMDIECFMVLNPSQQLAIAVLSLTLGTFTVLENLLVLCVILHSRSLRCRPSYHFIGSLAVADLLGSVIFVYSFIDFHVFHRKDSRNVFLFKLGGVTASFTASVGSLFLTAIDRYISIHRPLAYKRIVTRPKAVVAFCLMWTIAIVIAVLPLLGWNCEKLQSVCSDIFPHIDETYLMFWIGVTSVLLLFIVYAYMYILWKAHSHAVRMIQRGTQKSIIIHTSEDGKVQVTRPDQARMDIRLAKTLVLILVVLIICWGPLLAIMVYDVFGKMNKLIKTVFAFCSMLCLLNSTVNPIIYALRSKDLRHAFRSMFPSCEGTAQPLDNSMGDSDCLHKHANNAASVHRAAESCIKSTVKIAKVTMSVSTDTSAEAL
row,IC50,SMILES
1,1 to 25 µM,CC1Oc2c(cc(Br)cc2S(=O)(=O)NCc2ccc(C(F)(F)F)cc2)NC1=O (stereo not shown) [BC19365]
2,1 to 25 µM,COc1ccc(NS(=O)(=O)c2cc3c(cc2Cl)NC(=O)C(C)O3)cc1Cl (stereo not shown) [BC19280]
3,1 to 25 µM,CC1Oc2c(cc(Br)cc2S(=O)(=O)Nc2ccc(OC(F)(F)F)cc2)N(C)C1=O (stereo not shown) [BC19783]
4,≥ 25 µM,CS(=O)(=O)c1cc2c(c(S(=O)(=O)Nc3ccc(F)cc3F)c1)OCC(=O)N2 [BC19425]
5,1 to 25 µM,CC1Oc2cc(S(=O)(=O)NC3CCC(C(C)(C)C)CC3)c(Br)cc2NC1=O (stereo not shown) [BC19361]
6,≥ 25 µM,CCc1cccc(NS(=O)(=O)c2cc3c(cc2Br)N(C)C(=O)C(C)O3)c1 (stereo not shown) [BC19901]
7,≥ 25 µM,CCC1Oc2cc(S(=O)(=O)NCc3ccc(F)cc3F)c(Br)cc2NC1=O (stereo not shown) [BC19368]
8,≥ 25 µM,CCS(=O)(=O)c1cc2c(c(S(=O)(=O)Nc3ccccc3)c1)OCC(=O)N2 [BC19437]
9,1 to 25 µM,COc1ccc(NS(=O)(=O)c2cc3c(cc2Br)NC(=O)CCO3)cc1Cl [BC19694]
10,≥ 25 µM,O=C1NCCOc2c1cc(Br)cc2S(=O)(=O)Nc1ccc(Cl)cc1 [BC19603]
11,≥ 25 µM,CC1Oc2c(cc(Br)cc2S(=O)(=O)Nc2ccc(C(C)C)cc2)N(C)C1=O (stereo not shown) [BC19793]
12,1 to 25 µM,CCC1Oc2cc(S(=O)(=O)Nc3ccc(C)c(F)c3)c(Br)cc2N(C)C1=O (stereo not shown) [BC19924]
13,1 to 25 µM,COc1ccc(NS(=O)(=O)c2cc(Br)cc3c2OCCC(=O)N3)cc1Cl [BC19688]
14,1 to 25 µM,CCC1Oc2c(cc(Br)cc2S(=O)(=O)NC2CCC(C(C)(C)C)CC2)NC1=O (stereo not shown) [BC19379]
15,≥ 25 µM,CC1Oc2c(cc(Br)cc2S(=O)(=O)NC2CCC(O)CC2)NC1=O (stereo not shown) [BC19366]
16,≥ 25 µM,CCC1Oc2cc(S(=O)(=O)NC3CCC(O)CC3)c(Br)cc2NC1=O (stereo not shown) [BC19372]
17,≥ 25 µM,CCS(=O)(=O)c1cc2c(c(S(=O)(=O)Nc3cccc(F)c3)c1)OCC(=O)N2 [BC19440]
18,≥ 25 µM,CCC1Oc2c(cc(Br)cc2S(=O)(=O)Nc2ccccc2)N(C)C1=O (stereo not shown) [BC19927]
19,≥ 25 µM,CC(C)CC1Oc2cc(S(=O)(=O)Nc3ccc(OC(F)(F)F)cc3)c(Br)cc2NC1=O (stereo not shown) [BC19758]
20,≥ 25 µM,O=C1NCCOc2c1cc(Br)cc2S(=O)(=O)Nc1cccc(Cl)c1 [BC19611]
21,≥ 25 µM,CC(C)CC1Oc2cc(S(=O)(=O)Nc3ccc(F)cc3)c(Br)cc2NC1=O (stereo not shown) [BC19782]
22,≥ 25 µM,CCc1cccc(NS(=O)(=O)c2cc(S(=O)(=O)CC)cc3c2OCC(=O)N3)c1 [BC19439]

row,IC50,SMILES
1,1 to 25 µM,CCc1cccc(NS(=O)(=O)c2cc(Br)cc3c2OC(CC)C(=O)N3C)c1 (stereo not shown) [BC19915]
2,≥ 25 µM,CC(C)CC1Oc2cc(S(=O)(=O)Nc3ccc(F)cc3Cl)c(Br)cc2NC1=O (stereo not shown) [BC19778]
3,< 1 µM,O=C1COc2cc(S(=O)(=O)Nc3ccc(Cl)cc3)c(Cl)cc2N1 [BC19133]
4,≥ 25 µM,Cc1ccc(NS(=O)(=O)c2cc(S(C)(=O)=O)cc3c2OCC(=O)N3)cc1F [BC19423]
5,≥ 25 µM,O=C1CCOc2cc(S(=O)(=O)Nc3ccccc3)c(Br)cc2N1 [BC19689]
6,≥ 25 µM,CC(C)CC1Oc2cc(S(=O)(=O)Nc3ccccc3)c(Br)cc2NC1=O (stereo not shown) [BC19762]
7,1 to 25 µM,O=C1COc2c(cc(Br)cc2S(=O)(=O)Nc2ccc(F)c(F)c2)N1 [BC19177]
8,≥ 25 µM,COc1ccc(NS(=O)(=O)c2cc(Br)cc3c2OCCNC3=O)cc1Cl [BC19614]
9,≥ 25 µM,CNC(=O)N1c2cc(S(=O)(=O)N3CCCC3)ccc2NC(=O)C1C (stereo not shown) [BC19236]
10,≥ 25 µM,O=C1CCOc2cc(S(=O)(=O)Nc3ccc(F)cc3Cl)c(Br)cc2N1 [BC19658]
11,1 to 25 µM,CCC1Oc2cc(S(=O)(=O)Nc3ccc(F)cc3F)c(Cl)cc2NC1=O (stereo not shown) [BC19747]
12,≥ 25 µM,CC(C)c1ccc(NS(=O)(=O)c2cc(Br)cc3c2OCCNC3=O)cc1 [BC19605]
13,1 to 25 µM,CCc1cccc(NS(=O)(=O)c2cc(Br)cc3c2OC(CC(C)C)C(=O)N3)c1 (stereo not shown) [BC19771]
14,1 to 25 µM,CCC1Oc2c(cc(Br)cc2S(=O)(=O)Nc2ccc(OC(F)(F)F)cc2)N(C)C1=O (stereo not shown) [BC19921]
15,1 to 25 µM,CCC1Oc2c(cc(Cl)cc2S(=O)(=O)Nc2cccc(Cl)c2)NC1=O (stereo not shown) [BC19752]
16,≥ 25 µM,CCS(=O)(=O)c1cc2c(c(S(=O)(=O)Nc3ccc(C(C)C)cc3)c1)OCC(=O)N2 [BC19493]
17,≥ 25 µM,COc1ccc(NS(=O)(=O)c2cc(Br)cc3c2OCC(=O)N3)cc1 [BC19175]
18,≥ 25 µM,Cc1ccc(NS(=O)(=O)c2cc(Cl)cc3c2OC(C)C(=O)N3)cc1 (stereo not shown) [BC19718]
19,1 to 25 µM,CC1Oc2c(cc(Cl)cc2S(=O)(=O)Nc2cccc(Cl)c2)NC1=O (stereo not shown) [BC19716]
20,≥ 25 µM,CCS(=O)(=O)c1cc2c(c(S(=O)(=O)Nc3ccc(F)cc3Cl)c1)OCC(=O)N2 [BC19442]
21,≥ 25 µM,CCS(=O)(=O)c1cc2c(c(S(=O)(=O)Nc3cccc(Cl)c3)c1)OCC(=O)N2 [BC19441]
22,≥ 25 µM,CC(C)NS(=O)(=O)c1cc2c(cc1Cl)NC(=O)C(C)O2 (stereo not shown) [BC19207]

row,IC50,SMILES
1,< 1 µM,CC1Oc2cc(S(=O)(=O)Nc3cccc(Cl)c3)c(Cl)cc2NC1=O (stereo not shown) [BC19715]
2,≥ 25 µM,CC1Oc2cc(S(=O)(=O)Nc3ccc(C(C)C)cc3)c(Cl)cc2NC1=O (stereo not shown) [BC19704]
3,1 to 25 µM,CCC1Oc2cc(S(=O)(=O)Nc3ccc(Cl)cc3)c(Cl)cc2NC1=O (stereo not shown) [BC19739]
4,≥ 25 µM,CCS(=O)(=O)c1cc2c(c(S(=O)(=O)Nc3ccc(OC)c(Cl)c3)c1)OCC(=O)N2 [BC19547]
5,1 to 25 µM,CCC1Oc2c(cc(Cl)cc2S(=O)(=O)Nc2ccc(C)cc2)NC1=O (stereo not shown) [BC19754]
6,1 to 25 µM,CC1Oc2c(cc(Br)cc2S(=O)(=O)N2CCN(C)CC2)NC1=O (stereo not shown) [BC19228]
7,≥ 25 µM,N#Cc1ccc(NS(=O)(=O)c2cc3c(cc2Br)NC(=O)CCO3)cc1 [BC19695]
8,≥ 25 µM,CCS(=O)(=O)c1cc2c(c(S(=O)(=O)Nc3ccc(C)c(F)c3)c1)OCC(=O)N2 [BC19436]
9,1 to 25 µM,CCc1ccc(NS(=O)(=O)c2cc(Cl)cc3c2OC(CC)C(=O)N3)cc1 (stereo not shown) [BC19742]
10,≥ 25 µM,CC1Oc2c(cc(Cl)cc2S(=O)(=O)Nc2ccc(F)cc2Cl)NC1=O (stereo not shown) [BC19720]
11,≥ 25 µM,Cc1ccc(NS(=O)(=O)c2cc(S(C)(=O)=O)cc3c2OCC(=O)N3)cc1 [BC19488]
12,≥ 25 µM,CS(=O)(=O)c1cc2c(c(S(=O)(=O)Nc3ccc(C#N)cc3)c1)OCC(=O)N2 [BC19431]
13,≥ 25 µM,CC1Oc2cc(S(=O)(=O)N3CCCC3)c(Cl)cc2NC1=O (stereo not shown) [BC19208]
14,≥ 25 µM,CCC1Oc2cc(S(=O)(=O)Nc3ccc(C(F)(F)F)cc3Cl)c(Br)cc2NC1=O (stereo not shown) [BC19371]
15,≥ 25 µM,CS(=O)(=O)c1cc2c(c(S(=O)(=O)Nc3ccc(Cl)cc3)c1)OCC(=O)N2 [BC19483]
16,≥ 25 µM,O=C1NCCOc2c1cc(Br)cc2S(=O)(=O)Nc1ccc(F)cc1Cl [BC19613]
17,1 to 25 µM,CNC(=O)N1CC(=O)Nc2ccc(S(=O)(=O)N3CCCC3)cc21 [BC19183]
18,≥ 25 µM,CCC1Oc2cc(S(=O)(=O)Nc3ccc(Cl)cc3)c(Br)cc2N(C)C1=O (stereo not shown) [BC19930]
19,≥ 25 µM,O=C1COc2cc(S(=O)(=O)Nc3ccc(C(F)(F)F)cc3Cl)c(Br)cc2N1 [BC19390]
20,≥ 25 µM,CC1Oc2c(cc(Br)cc2S(=O)(=O)Nc2ccc(F)c(F)c2)N(C)C1=O (stereo not shown) [BC19787]
21,≥ 25 µM,CC(C)NC(=O)N1c2cc(S(=O)(=O)N3CCCC3)ccc2NC(=O)C1C (stereo not shown) [BC19298]
22,1 to 25 µM,CCC1Oc2cc(S(=O)(=O)Nc3ccc(F)cc3)c(Cl)cc2NC1=O (stereo not shown) [BC19731]

row,IC50,SMILES
1,≥ 25 µM,CCC1Oc2cc(S(=O)(=O)Nc3ccc(F)c(F)c3)c(Cl)cc2NC1=O (stereo not shown) [BC19735]
2,≥ 25 µM,CCC1Oc2cc(S(=O)(=O)Nc3ccccc3)c(Br)cc2N(C)C1=O (stereo not shown) [BC19928]
3,1 to 25 µM,CCc1cccc(NS(=O)(=O)c2cc3c(cc2Br)NC(=O)C(C)O3)c1 (stereo not shown) [BC19283]
4,1 to 25 µM,CC1Oc2cc(S(=O)(=O)Nc3ccc(F)cc3Cl)c(Cl)cc2NC1=O (stereo not shown) [BC19719]
5,1 to 25 µM,CCC1Oc2c(cc(Cl)cc2S(=O)(=O)Nc2ccc(Cl)cc2)NC1=O (stereo not shown) [BC19740]
6,≥ 25 µM,CC1Nc2cc(S(=O)(=O)N3CCCC3)ccc2NC1=O (stereo not shown) [BC19235]
7,≥ 25 µM,NS(=O)(=O)c1ccc2c(c1)N1CCCC1C(=O)N2 (stereo not shown) [BC19300]
8,≥ 25 µM,O=C1NCCOc2c1cc(Br)cc2S(=O)(=O)Nc1ccccc1 [BC19553]
9,1 to 25 µM,Cc1ccc(NS(=O)(=O)c2cc(Br)cc3c2OC(C)C(=O)N3C)cc1Cl (stereo not shown) [BC19796]
10,1 to 25 µM,COCCNC(=O)N1c2cc(S(=O)(=O)N3CCCC3)ccc2NC(=O)C1C (stereo not shown) [BC19299]
11,≥ 25 µM,Cc1ccc(NS(=O)(=O)c2cc3c(cc2Br)NC(=O)CCO3)cc1Cl [BC19659]
12,≥ 25 µM,CCc1cccc(NS(=O)(=O)c2cc3c(cc2Br)NC(=O)CCO3)c1 [BC19657]
13,≥ 25 µM,CCS(=O)(=O)c1cc2c(c(S(=O)(=O)Nc3ccc(C)cc3)c1)OCC(=O)N2 [BC19546]
14,1 to 25 µM,CCC1Oc2c(cc(Br)cc2S(=O)(=O)NCCc2ccc(OC(F)(F)F)cc2)NC1=O (stereo not shown) [BC19376]
15,≥ 25 µM,Cc1ccc(NS(=O)(=O)c2cc(Br)cc3c2OC(C)C(=O)N3C)cc1F (stereo not shown) [BC19785]
16,1 to 25 µM,CCC1Oc2cc(S(=O)(=O)Nc3cccc(Cl)c3)c(Br)cc2NC1=O (stereo not shown) [BC19221]
17,≥ 25 µM,CCC1Oc2c(cc(Br)cc2S(=O)(=O)Nc2ccc(Cl)cc2)NC1=O (stereo not shown) [BC19290]
18,1 to 25 µM,CC1Oc2cc(S(=O)(=O)NCCc3ccc(OC(F)(F)F)cc3)c(Br)cc2NC1=O (stereo not shown) [BC19359]
19,≥ 25 µM,CCC1Oc2cc(S(=O)(=O)Nc3ccc(OC(F)(F)F)cc3)c(Br)cc2N(C)C1=O (stereo not shown) [BC19922]
